# In US20060069132A1, “Azolecarboxamide herbicides” (priority 2004, published 2006):
# What was measured:
# common ragweed = assay: Test C pre-/postemergence herbicide test; format: in vivo, Ambrosia elatior; set-up: key to Plant response rating, Ragweed: 0 = no effect, 100 = complete control; conditions: for Ragweed plant response rating: 500 g ai/ha
# In short: (§1)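 Emerged plants at the 1- to 4-leaf stage (2–18 cm), or freshly planted seeds, received test chemicals in a non-phytotoxic solvent mixture with surfactant. Response was visually scored against controls after 12 to 14 days in the greenhouse, on a 0 (no effect) to 100 (complete control) scale.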
# lambsquarters = assay: Test C pre-/postemergence herbicide test; format: in vivo, Chenopodium album; conditions: for Lambsquarters plant response rating: 500 g ai/ha
# In short: as §1
# barnyardgrass = assay: Test A pre-/postemergence herbicide test; format: in vivo, Echinochloa crus-galli
# In short: (§2)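 Both application timings were run together: directed soil spray over freshly planted seeds in sandy loam, and runoff spray onto 2–10 cm seedlings. Evaluation after ~10 days in greenhouse used a 0–100 visual scale versus untreated controls.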
# bermudagrass = assay: Test C pre-/postemergence herbicide test; format: in vivo, Cynodon dactylon; conditions: for Bermudagrass plant response rating: 500 g ai/ha
# In short: as §1
# morningglory [1] = assay: Test C pre-/postemergence herbicide test; format: in vivo, Ipomoea coccinea; set-up: key to Plant response rating, Morningglory: 0 = no effect, 100 = complete control; conditions: for Morningglory plant response rating: 500 g ai/ha
# In short: as §1
# morningglory [2] = assay: Test A pre-/postemergence herbicide test; format: in vivo, Ipomoea spp.
# In short: as §2
# large crabgrass = assay: Test C pre-/postemergence herbicide test; format: in vivo, Digitaria sanguinalis; conditions: for Crabgrass, Large plant response rating: 500 g ai/ha
# In short: as §1
# giant foxtail = assay: Test C pre-/postemergence herbicide test; format: in vivo, Setaria faberi; conditions: for Foxtail, Giant plant response rating: 500 g ai/ha
# In short: as §1
# velvetleaf = assay: Test C pre-/postemergence herbicide test; format: in vivo, Abutilon theophrasti; conditions: for Velvetleaf plant response rating: 500 g ai/ha
# In short: as §1
# redroot pigweed = assay: Test A pre-/postemergence herbicide test; format: in vivo, Amaranthus retroflexus
# In short: as §2
# [3] = Postemergence, 250 g ai/ha, scale 0 to 100, 0 no effect, 100 complete control
# [4] = postemergence, 125 g ai/ha, scale 0 to 100
# [5] = postemergence, 62 g ai/ha, scale 0 to 100
# [6] = Postemergence, 500 g ai/ha, 0 to 100 scale, 0 no effect, 100 complete control
# [7] = Postemergence, 2000 g ai/ha, 0 to 100 scale, 0 no effect, 100 complete control
# [8] = Preemergence, 500 g ai/ha, visual rating, 0 to 100 scale (0 no effect, 100 complete control)
# [9] = Preemergence, 2000 g ai/ha, 0 to 100 scale, 0 no effect, 100 complete control
# [10] = 31 g ai/ha, preemergence, scale 0 to 100
# [11] = 125 g ai/ha, scale 0 (no effect) to 100 (complete control), visual, 12 to 14 days, preemergence
# [12] = Preemergence, 2000 g ai/ha, visual rating, 0 to 100 scale (0 no effect, 100 complete control)
# [13] = 250 g ai/ha, scale 0 to 100 (0 no effect, 100 complete control), visual, 12 to 14 days, preemergence
# [14] = Preemergence, scale 0 to 100, 0 no effect, 100 complete control
structure (smiles),measurement,setting,value
CCCCOC(=O)c1cccc(NC(=O)c2cc(C(C)(C)C)nn2CC)c1 [Compound 86],Ragweed plant response rating,"common ragweed; Postemergence, scale 0 to 100",70
same,"Plant response rating, Ragweed",common ragweed; [3],70
same,"Plant response rating, Ragweed",common ragweed; [4],65
same,"Plant response rating, Ragweed",common ragweed; [5],10
same,Lambsquarters plant response rating,"lambsquarters; Postemergence, scale 0 to 100",100
same,"Plant response rating, Lambsquarters",lambsquarters; [3],100
same,"Plant response rating, Lambsquarters",lambsquarters; [4],100
same,"Plant response rating, Lambsquarters",lambsquarters; [5],100
same,Barnyardgrass plant response rating,barnyardgrass; [6],20
same,"Plant response rating, Barnyardgrass",barnyardgrass; [7],20
same,Barnyardgrass plant response rating,barnyardgrass; [8],0
same,Barnyardgrass plant response rating,barnyardgrass; [9],0
same,Bermudagrass plant response rating,"bermudagrass; Postemergence, scale 0 to 100",100
same,"Plant response rating, Bermudagrass",bermudagrass; [3],30
same,"Plant response rating, Bermudagrass",bermudagrass; [5],10
same,Morningglory plant response rating,"morningglory [1]; Postemergence, scale 0 to 100",85
same,"Plant response rating, Morningglory",morningglory [1]; [3],85
same,"Plant response rating, Morningglory",morningglory [1]; [4],75
same,"Plant response rating, Morningglory",morningglory [1]; [5],10
same,Morningglory plant response rating,morningglory [2]; [6],20
same,"Plant response rating, Morningglory",morningglory [2]; [7],35
same,Morningglory plant response rating,morningglory [2]; [8],0
same,Morningglory plant response rating,morningglory [2]; [9],15
same,"Crabgrass, Large plant response rating","large crabgrass; Postemergence, scale 0 to 100",40
same,"Plant response rating, Crabgrass, Large",large crabgrass; [3],10
same,"Plant response rating, Crabgrass, Large",large crabgrass; [5],10
same,"Foxtail, Giant plant response rating","giant foxtail; Postemergence, scale 0 to 100",70
same,"Plant response rating, Foxtail, Giant",giant foxtail; [3],50
same,"Plant response rating, Foxtail, Giant",giant foxtail; [4],20
same,"Plant response rating, Foxtail, Giant",giant foxtail; [5],10
same,Velvetleaf plant response rating,"velvetleaf; Postemergence, scale 0 to 100",85
same,"Plant response rating, Velvetleaf",velvetleaf; [3],80
same,"Plant response rating, Velvetleaf",velvetleaf; [4],60
same,"Plant response rating, Velvetleaf",velvetleaf; [5],40
same,Pigweed plant response rating,redroot pigweed; [6],55
same,"Plant response rating, Pigweed",redroot pigweed; [7],95
same,Pigweed plant response rating,redroot pigweed; [8],0
same,Pigweed plant response rating,redroot pigweed; [9],55
C=Cn1nc(C(C)(C)C)cc1C(=O)Nc1cccc(C(C)=NO)c1 [Compound 114],"Plant response rating, Ragweed",common ragweed; [10],10
same,"Plant response rating (0 = no effect, 100 = complete control), Ragweed","common ragweed; 62 g ai/ha, preemergence",10
same,"Plant response rating, Ragweed",common ragweed; [11],10
same,"Plant response rating, Ragweed",common ragweed; [3],90
same,"Plant response rating, Ragweed",common ragweed; [4],80
same,"Plant response rating, Ragweed",common ragweed; [5],60
same,"Plant response rating, Lambsquarters",lambsquarters; [10],40
same,"Plant response rating (0 = no effect, 100 = complete control), Lambsquarters","lambsquarters; 62 g ai/ha, preemergence",80
same,"Plant response rating, Lambsquarters",lambsquarters; [11],100
same,"Plant response rating, Lambsquarters",lambsquarters; [3],100
same,"Plant response rating, Lambsquarters",lambsquarters; [4],90
same,"Plant response rating, Lambsquarters",lambsquarters; [5],90
same,Barnyardgrass plant response rating,barnyardgrass; [6],30
same,"Plant response rating, Barnyardgrass",barnyardgrass; [7],40
same,Barnyardgrass plant response rating,barnyardgrass; [8],25
same,Barnyardgrass plant response rating,barnyardgrass; [12],40
same,"Plant response rating, Bermudagrass",bermudagrass; [10],10
same,"Plant response rating (0 = no effect, 100 = complete control), Bermudagrass","bermudagrass; 62 g ai/ha, preemergence",50
same,"Plant response rating, Bermudagrass",bermudagrass; [11],90
same,"Plant response rating, Bermudagrass",bermudagrass; [13],100
same,"Plant response rating, Bermudagrass",bermudagrass; [3],90
same,"Plant response rating, Bermudagrass",bermudagrass; [4],90
same,"Plant response rating, Bermudagrass","bermudagrass; postemergence, 31 g ai/ha, scale 0 to 100",20
same,"Plant response rating, Bermudagrass",bermudagrass; [5],60
same,"Plant response rating, Morningglory",morningglory [1]; [10],40
same,"Plant response rating, Morningglory",morningglory [1]; [11],60
same,"Plant response rating, Morningglory",morningglory [1]; [4],30
same,"Plant response rating, Morningglory",morningglory [1]; [5],10
same,Morningglory plant response rating,morningglory [2]; [6],10
same,"Plant response rating, Morningglory",morningglory [2]; [7],25
same,Morningglory plant response rating,morningglory [2]; [8],35
same,Morningglory plant response rating,morningglory [2]; [12],70
same,"Plant response rating, Crabgrass, Large",large crabgrass; [10],100
same,"Plant response rating (0 = no effect, 100 = complete control), Crabgrass, Large","large crabgrass; 62 g ai/ha, preemergence",100
same,"Plant response rating, Crabgrass, Large",large crabgrass; [11],100
same,"Plant response rating, Crabgrass, Large",large crabgrass; [13],100
same,"Plant response rating, Crabgrass, Large",large crabgrass; [3],100
same,"Plant response rating, Crabgrass, Large",large crabgrass; [4],100
same,"Plant response rating, Crabgrass, Large",large crabgrass; [5],20
same,"Plant response rating, Foxtail, Giant",giant foxtail; [10],20
same,"Plant response rating (0 = no effect, 100 = complete control), Foxtail, Giant","giant foxtail; 62 g ai/ha, preemergence",20
same,"Plant response rating, Foxtail, Giant",giant foxtail; [11],30
same,"Plant response rating, Foxtail, Giant",giant foxtail; [13],40
same,"Plant response rating, Foxtail, Giant",giant foxtail; [3],10
same,"Plant response rating, Foxtail, Giant",giant foxtail; [5],10
same,"Plant response rating, Velvetleaf",velvetleaf; [10],0
same,"Plant response rating, Velvetleaf",velvetleaf; [11],30
same,"Plant response rating, Velvetleaf",velvetleaf; [3],80
same,"Plant response rating, Velvetleaf",velvetleaf; [4],70
same,"Plant response rating, Velvetleaf",velvetleaf; [5],60
same,Pigweed plant response rating,redroot pigweed; [6],85
same,"Plant response rating, Pigweed",redroot pigweed; [7],100
same,Pigweed plant response rating,redroot pigweed; [8],85
same,Pigweed plant response rating,redroot pigweed; [12],90
CCn1nc(C(C)(C)C)cc1C(=O)Nc1cccc(SC(F)(F)F)c1 [Compound 130],"Plant response rating (0 = no effect, 100 = complete control), Ragweed","common ragweed; 62 g ai/ha, preemergence",0
same,"Plant response rating, Ragweed",common ragweed; [11],10
same,Ragweed plant response rating,"common ragweed; Postemergence, scale 0 to 100",85
same,"Plant response rating, Ragweed",common ragweed; [3],85
same,Ragweed plant response rating,common ragweed; [14],80
same,"Plant response rating, Ragweed",common ragweed; [4],40
same,"Plant response rating (0 = no effect, 100 = complete control), Lambsquarters","lambsquarters; 62 g ai/ha, preemergence",10
same,"Plant response rating, Lambsquarters",lambsquarters; [11],30
same,Lambsquarters plant response rating,"lambsquarters; Postemergence, scale 0 to 100",100
same,"Plant response rating, Lambsquarters",lambsquarters; [3],100
same,Lambsquarters plant response rating,lambsquarters; [14],80
same,"Plant response rating, Lambsquarters",lambsquarters; [4],100
same,Barnyardgrass plant response rating,barnyardgrass; [6],20
same,"Plant response rating, Barnyardgrass",barnyardgrass; [7],20
same,Barnyardgrass plant response rating,barnyardgrass; [8],40
same,Barnyardgrass plant response rating,barnyardgrass; [12],30
same,"Plant response rating (0 = no effect, 100 = complete control), Bermudagrass","bermudagrass; 62 g ai/ha, preemergence",60
same,"Plant response rating, Bermudagrass",bermudagrass; [11],90
same,"Plant response rating, Bermudagrass",bermudagrass; [13],100
same,Bermudagrass plant response rating,"bermudagrass; Postemergence, scale 0 to 100",90
same,"Plant response rating, Bermudagrass",bermudagrass; [3],90
same,Bermudagrass plant response rating,bermudagrass; [14],100
same,"Plant response rating, Bermudagrass",bermudagrass; [4],85
same,"Plant response rating (0 = no effect, 100 = complete control), Morningglory","morningglory [1]; 62 g ai/ha, preemergence",0
same,"Plant response rating, Morningglory",morningglory [1]; [11],0
same,Morningglory plant response rating,"morningglory [1]; Postemergence, scale 0 to 100",100
same,"Plant response rating, Morningglory",morningglory [1]; [3],80
same,Morningglory plant response rating,morningglory [1]; [14],30
same,"Plant response rating, Morningglory",morningglory [1]; [4],40
same,Morningglory plant response rating,morningglory [2]; [6],20
same,"Plant response rating, Morningglory",morningglory [2]; [7],25
same,Morningglory plant response rating,morningglory [2]; [8],10
same,Morningglory plant response rating,morningglory [2]; [12],15
same,"Plant response rating, Crabgrass, Large",large crabgrass; [11],90
same,"Plant response rating, Crabgrass, Large",large crabgrass; [13],95
same,"Crabgrass, Large plant response rating","large crabgrass; Postemergence, scale 0 to 100",90
same,"Plant response rating, Crabgrass, Large",large crabgrass; [3],20
same,"Crabgrass, Large plant response rating",large crabgrass; [14],95
same,"Plant response rating (0 = no effect, 100 = complete control), Foxtail, Giant","giant foxtail; 62 g ai/ha, preemergence",40
same,"Plant response rating, Foxtail, Giant",giant foxtail; [11],45
same,"Plant response rating, Foxtail, Giant",giant foxtail; [13],65
same,"Foxtail, Giant plant response rating","giant foxtail; Postemergence, scale 0 to 100",30
same,"Plant response rating, Foxtail, Giant",giant foxtail; [3],15
same,"Foxtail, Giant plant response rating",giant foxtail; [14],95
same,"Plant response rating, Foxtail, Giant",giant foxtail; [4],10
same,"Plant response rating, Velvetleaf",velvetleaf; [11],10
same,Velvetleaf plant response rating,"velvetleaf; Postemergence, scale 0 to 100",85
same,"Plant response rating, Velvetleaf",velvetleaf; [3],40
same,Velvetleaf plant response rating,velvetleaf; [14],100
same,"Plant response rating, Velvetleaf",velvetleaf; [4],30
same,Pigweed plant response rating,redroot pigweed; [6],50
same,"Plant response rating, Pigweed",redroot pigweed; [7],65
same,Pigweed plant response rating,redroot pigweed; [12],65
same,Pigweed plant response rating,"redroot pigweed; preemergence, 500 g ai/ha, visual injury, 0 to 100 scale (0 no effect, 100 complete control)",35
